# Test results reported in patent US10858366B2 (priority 2016, dated 2020).
# Experiments:
# [1] = target: truncated Influenza A/victoria/75 PA(1-209) (Influenza A virus (strain A/Victoria/3/1975 H3N2), UniProt P31343); experiment: Endonuclease Inhibition Assay (PA FP Assay); assay type: binding; details: fluorescence polarization, fluorescein-labeled probe
# Method: Endonuclease Inhibition Assay (PA FP Assay)
# Compounds were dissolved and serially diluted in 100% DMSO then 0.5 μl was transferred to 384-well plates. 50 nM truncated Influenza A/victoria/75 PA(1-209) was prepared in assay buffer (20 mM Tris, pH=7.5, 10 mM MgCl2, 0.01% Tween 20, 100 mM NaCl and 1 mM DTT) and 20 ul was added to each well of assay plate with compounds, centrifuged for 1 min at 1000 rpm and incubated for 30 min at room temperature. 20 μl of 20 nM fluorescein-labeled probe [5-(4-(3-carboxy-3-oxopropanoyl)-4-(4-chlorobenzyl)piperidine-1-carbonyl)-2-(6-hydroxy-3-oxo-3H-xanthen-9-yl)benzoic acid] in assay buffer was then added, centrifuged for 1 min at 1000 rpm and incubated for 60 min at room temperature.
# Fluorescence polarization was measured on Perkin Elmer Envision plate reader with excitation at 480 nm and emission at 535 nm and reported in millipolarization units (mP). IC50 values were determined relative to wells containing 125 uM of a compound known to bind to the active site of PA and uninhibited wells containing 1.25% DMSO.
# [2] = target: RNP_CAL (PB2, PB1, PA, NP, influenza A Luciferase reporter in 293T cells) (Influenza A virus (strain swl A/California/04/2009 H1N1), UniProt C3W5S0); experiment: cell-based
SMILES,IC50 [1],EC50 [2]
"O=c1ccn2c(c1O)-c1nccn1CN2C(c1ccccc1)c1ccccc1 [Example 6, 6-benzhydryl-11-hydroxy-5H-imidazo[1,2-d]pyrido[2,1-f][1,2,4]triazin-10(6H)-one]",40 nM,190 nM
"CC1(C)N(C(c2ccccc2)c2ccccc2)n2ccc(=O)c(O)c2-c2nccn21 [Example 75, 6-benzhydryl-11-hydroxy-5,5-dimethyl-5,6-dihydro-10H-imidazo[1,2-d]pyrido[2,1-f][1,2,4]triazin-10-one]",100 nM,300 nM
"O=c1cnn2c(c1O)-c1ncnn1CC2C(c1ccccc1)c1ccccc1 (centres unmarked) [Example 3, 6-benzhydryl-11-hydroxy-5,6-dihydro-10H-[1,2,4]triazolo[5′,1′:3,4]pyrazino[1,2-b]pyridazin-10-one]",400 nM,1100 nM
"O=c1ccn2c(c1O)-c1ncc(C3CC3)n1C[C@@H]2C(c1ccccc1)c1ccccc1 [Example 8, (S)-6-benzhydryl-3-cyclopropyl-11-hydroxy-5H-imidazo[1,2-a]pyrido[2,1-c]pyrazin-10(6H)-one]",40 nM,150 nM
"O=c1cnn2c(c1O)-c1nccn1C[C@@H]2[C@@H](c1ccc(F)cc1)c1ccc(Cl)cc1 [Example 33, (S)-6-((S)-(4-chlorophenyl)(4-fluorophenyl)methyl)-11-hydroxy-5,6-dihydro-10H-imidazo[2′,1′:3,4]pyrazino[1,2-b]pyridazin-10-one]",20 nM,110 nM
"O=c1cnn2c(c1O)-c1nccn1CC2C(c1cccc(F)c1)c1cccc(F)c1 (centres unmarked) [Example 2, 6-(bis(3-fluorophenyl)methyl)-11-hydroxy-5,6-dihydro-10H-imidazo[2′,1′:3,4]pyrazino[1,2-b]pyridazin-10-one]",70 nM,110 nM
"O=c1ccn2c(c1O)-c1nccn1C[C@@H]2C(c1ccccc1)c1ccccc1 [Example 4, (S)-6-Benzhydryl-11-hydroxy-5H-imidazo[1,2-a]pyrido[2,1-c]pyrazin-10(6H)-one]",10 nM,160 nM
"O=c1cnn2c(c1O)-c1nccn1C[C@@H]2[C@H](c1ccccc1)c1ccc(F)cc1 [Example 17, (S)-6-((R)-(4-fluorophenyl)(phenyl)methyl)-11-hydroxy-5,6-dihydro-10H-imidazo[2′,1′:3,4]pyrazino[1,2-b]pyridazin-10-one]",20 nM,10 nM
"N#Cc1cccc([C@H](c2ccc(F)cc2)[C@H]2Cn3ccnc3-c3c(O)c(=O)cnn32)c1 [Example 43, 3-((S)-(4-fluorophenyl)((S)-11-hydroxy-10-oxo-5,6-dihydro-10H-imidazo[2′,1′:3,4]pyrazino[1,2-b]pyridazin-6-yl)methyl)benzonitrile]",20 nM,39 nM
"O=c1ccn2c(c1O)-c1ncc(-c3ccccc3)n1C[C@@H]2C(c1ccccc1)c1ccccc1 [Example 53, (S)-6-benzhydryl-11-hydroxy-3-phenyl-5H-imidazo [1,2-a] pyrido[2,1-c]pyrazin-10(6H)-one]",60 nM,3000 nM
"N#Cc1cccc([C@H](c2cccc(F)c2)[C@H]2Cn3ccnc3-c3c(O)c(=O)cnn32)c1 [Example 46, 3-((R)-(3-fluorophenyl)((S)-11-hydroxy-10-oxo-5,6-dihydro-10H-imidazo[2′,1′:3,4]pyrazino[1,2-b]pyridazin-6-yl)methyl)benzonitrile]",50 nM,64 nM
"O=c1cnn2c(c1O)-c1nccn1C[C@@H]2C(c1cccc(F)c1)c1cccc(F)c1 [Example 23, (S)-6-(bis(3-fluorophenyl)methyl)-11-hydroxy-5,6-dihydro-10H-imidazo[2′,1′:3,4]pyrazino[1,2-b]pyridazin-10-one]",50 nM,39 nM
"O=c1cnn2c(c1O)-c1nccn1CC2C(c1ccccc1)c1ccccc1 (centres unmarked) [Example 1, 6-Benzhydryl-11-hydroxy-5H-imidazo[2′,1′:3,4]pyrazino[1,2-b]pyridazin-10(6H)-one]",50 nM,110 nM
"O=c1cnn2c(c1O)-c1nccn1C[C@@H]2[C@@H](c1ccccc1)c1ccc(F)cc1 [Example 18, (S)-6-((S)-(4-fluorophenyl)(phenyl)methyl)-11-hydroxy-5,6-dihydro-10H-imidazo[2′,1′:3,4]pyrazino[1,2-b]pyridazin-10-one]",20 nM,130 nM
"O=c1cnn2c(c1O)-c1nccn1C[C@@H]2[C@H](c1ccc(F)cc1)c1ccc(F)cc1Br [Example 39, (S)-6-((R)-(2-bromo-4-fluorophenyl)(4-fluorophenyl)methyl)-11-hydroxy-5,6-dihydro-10H-imidazo[2′,1′:3,4]pyrazino[1,2-b]pyridazin-10-one]",10 nM,33 nM
"O=c1cnn2c(c1O)-c1nccn1C[C@@H]2[C@H](c1ccc(F)cc1)c1cncc(F)c1 [Example 19, (S)-6-((R)-(4-fluorophenyl)(5-fluoropyridin-3-yl)methyl)-11-hydroxy-5,6-dihydro-10H-imidazo[2′,1′:3,4]pyrazino[1,2-b]pyridazin-10-one]",40 nM,260 nM
"O=c1cnn2c(c1O)-c1nccn1C[C@@H]2[C@@H](c1ccc(F)cc1)c1cccc(F)c1 [Example 24, (S)-6-((S)-(3-fluorophenyl)(4-fluorophenyl)methyl)-11-hydroxy-5,6-dihydro-10H-imidazo[2′,1′:3,4]pyrazino[1,2-b]pyridazin-10-one]",9 nM,36 nM
"Cc1ccccc1[C@H](c1ccc(F)cc1)[C@H]1Cn2ccnc2-c2c(O)c(=O)cnn21 [Example 40, (S)-6-((S)-(4-fluorophenyl)(o-tolyl)methyl)-11-hydroxy-5,6-dihydro-10H-imidazo[2′,1′:3,4]pyrazino[1,2-b]pyridazin-10-one]",20 nM,32 nM
"Cc1cccc([C@H](c2ccc(F)cc2)[C@H]2Cn3ccnc3-c3c(O)c(=O)cnn32)c1 [Example 38, (S)-6-((S)-(4-fluorophenyl)(m-tolyl)methyl)-11-hydroxy-5,6-dihydro-10H-imidazo[2′,1′:3,4]pyrazino[1,2-b]pyridazin-10-one]",40 nM,49 nM
